The record followed here is patent US20120270237A9, “METHODS FOR THE IDENTIFICATION OF KINASE INTERACTING MOLECULES AND FOR THE PURIFICATION OF KINASE PROTEINS” (Cellzone AG, priority 2009, published 2012).

The target of one assay is RSK2 (Homo sapiens, UniProt P51812). As to the kind of experiment: Kinobeads competition binding, HeLa Placenta lysate mix. Details: capturing and identification of kinases from mixed HeLa placenta lysates; endogenous in cells; host or cells: HeLa cells mixed with placenta tissue lysate. The conditions noted are these: 10 μM free compound. As to the method:
(§1) To one aliquot of cell lysate 10 μM of the free compound (FIG. 3, CZC31326) was added and allowed to bind to proteins in the lysate. Then the affinity matrix with the immobilized compound was added to capture proteins that were not interacting with the previously added free compound. Beads were separated from the lysate and bead bound proteins were eluted in SDS sample buffer and subsequently separated by SDS-Polyacrylamide gel electrophoresis (FIG. 10). Suitable gel bands were cut out and subjected to in-gel proteolytic digestion with trypsin. The second lysate aliquot was processed identically, however no free compound was added (DMSO solvent control). Peptides originating from samples 1 and 2 were labeled with iTRAQ reagents (iTRAQ 114 and iTRAQ 117) and the combined samples were analyzed with a nano-flow liquid chromatography system coupled online to a tandem mass spectrometer (LC-MS/MS) experiment followed by iTRAQ reporter ion quantification in the MS/MS spectra as described in Example 2.

In the next assay the target is T1, PHKg2 (Homo sapiens, UniProt P15735).
T1 sequence (P15735 1-406): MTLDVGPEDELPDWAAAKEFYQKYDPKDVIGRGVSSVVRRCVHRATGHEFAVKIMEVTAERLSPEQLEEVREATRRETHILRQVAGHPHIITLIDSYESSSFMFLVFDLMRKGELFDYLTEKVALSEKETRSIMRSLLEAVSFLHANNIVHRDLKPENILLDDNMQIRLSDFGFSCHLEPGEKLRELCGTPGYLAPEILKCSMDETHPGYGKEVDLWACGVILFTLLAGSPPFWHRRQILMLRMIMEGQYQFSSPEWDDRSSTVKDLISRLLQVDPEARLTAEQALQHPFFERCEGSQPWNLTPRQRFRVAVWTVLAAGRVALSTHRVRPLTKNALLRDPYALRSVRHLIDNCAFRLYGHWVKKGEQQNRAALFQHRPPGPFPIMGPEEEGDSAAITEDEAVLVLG
The assay is described as above. Details: capturing and identification of kinases from mixed HeLa placenta lysates; endogenous in cells; host or cells: HeLa cells mixed with placenta tissue lysate. Particulars: 10 μM free compound. As to the method:
as §1

A further assay has as its target T2, MST1 (Homo sapiens, UniProt Q13043).
T2 sequence (Q13043 1-487): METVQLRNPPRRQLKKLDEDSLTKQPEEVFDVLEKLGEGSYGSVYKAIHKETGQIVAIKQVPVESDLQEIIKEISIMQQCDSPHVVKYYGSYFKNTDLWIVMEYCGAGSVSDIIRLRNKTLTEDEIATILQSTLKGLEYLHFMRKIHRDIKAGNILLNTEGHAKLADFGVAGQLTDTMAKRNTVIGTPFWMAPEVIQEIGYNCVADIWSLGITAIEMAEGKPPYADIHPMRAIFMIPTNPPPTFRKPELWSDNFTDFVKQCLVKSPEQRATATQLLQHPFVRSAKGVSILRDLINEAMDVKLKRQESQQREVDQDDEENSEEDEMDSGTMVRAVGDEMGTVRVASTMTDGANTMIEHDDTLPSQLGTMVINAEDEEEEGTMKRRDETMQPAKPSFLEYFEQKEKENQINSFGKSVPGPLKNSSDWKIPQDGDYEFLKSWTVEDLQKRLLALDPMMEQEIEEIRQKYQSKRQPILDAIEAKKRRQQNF
The description is as above. Details: capturing and identification of kinases from mixed HeLa placenta lysates; endogenous in cells; host or cells: HeLa cells mixed with placenta tissue lysate. Particulars: 10 μM free compound. As for the experimental part:
as §1

The target in another assay is PKN2 (Homo sapiens, UniProt Q16513). Described as above. Details: capturing and identification of kinases from mixed HeLa placenta lysates; endogenous in cells; host or cells: HeLa cells mixed with placenta tissue lysate. The conditions noted are these: 10 μM free compound. As for the experimental part: as §1
The target of the next assay is PYK2 (Homo sapiens, UniProt Q14289). The assay is described as above. Also on record: capturing and identification of kinases from mixed HeLa placenta lysates; endogenous in cells; host or cells: HeLa cells mixed with placenta tissue lysate. Particulars: 10 μM free compound. As for the experimental part:
as §1

For another assay, the target named is PLK1 (Homo sapiens, UniProt P53350). The assay is described as above. Details: capturing and identification of kinases from mixed HeLa placenta lysates; endogenous in cells; host or cells: HeLa cells mixed with placenta tissue lysate. Particulars: 10 μM free compound. As to the method: as §1
A further assay has as its target SYK (Homo sapiens, UniProt P43405). The description is as above. Details: capturing and identification of kinases from mixed HeLa placenta lysates; endogenous in cells; host or cells: HeLa cells mixed with placenta tissue lysate. Particulars: 10 μM free compound. As for the experimental part:
as §1

Another assay concerns the target JNK1 (Homo sapiens, UniProt P45983). As to the kind of experiment: Kinobeads competition binding, L-363 cell lysate. Details: endogenous in cells. The conditions noted are these: 10 μM free compound, L-363 lysate. In short, it runs like this: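 Steps: MG132 20 μM, 3 h, on L-363 cells; harvest and lyse; add 10 μM free compound (or DMSO control); add affinity beads with immobilized compound; elute in SDS buffer, run gel, in-gel trypsin digest; iTRAQ label; nano-LC-MS/MS quantification.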

Chain of PKN2 (Q16513 whole entry): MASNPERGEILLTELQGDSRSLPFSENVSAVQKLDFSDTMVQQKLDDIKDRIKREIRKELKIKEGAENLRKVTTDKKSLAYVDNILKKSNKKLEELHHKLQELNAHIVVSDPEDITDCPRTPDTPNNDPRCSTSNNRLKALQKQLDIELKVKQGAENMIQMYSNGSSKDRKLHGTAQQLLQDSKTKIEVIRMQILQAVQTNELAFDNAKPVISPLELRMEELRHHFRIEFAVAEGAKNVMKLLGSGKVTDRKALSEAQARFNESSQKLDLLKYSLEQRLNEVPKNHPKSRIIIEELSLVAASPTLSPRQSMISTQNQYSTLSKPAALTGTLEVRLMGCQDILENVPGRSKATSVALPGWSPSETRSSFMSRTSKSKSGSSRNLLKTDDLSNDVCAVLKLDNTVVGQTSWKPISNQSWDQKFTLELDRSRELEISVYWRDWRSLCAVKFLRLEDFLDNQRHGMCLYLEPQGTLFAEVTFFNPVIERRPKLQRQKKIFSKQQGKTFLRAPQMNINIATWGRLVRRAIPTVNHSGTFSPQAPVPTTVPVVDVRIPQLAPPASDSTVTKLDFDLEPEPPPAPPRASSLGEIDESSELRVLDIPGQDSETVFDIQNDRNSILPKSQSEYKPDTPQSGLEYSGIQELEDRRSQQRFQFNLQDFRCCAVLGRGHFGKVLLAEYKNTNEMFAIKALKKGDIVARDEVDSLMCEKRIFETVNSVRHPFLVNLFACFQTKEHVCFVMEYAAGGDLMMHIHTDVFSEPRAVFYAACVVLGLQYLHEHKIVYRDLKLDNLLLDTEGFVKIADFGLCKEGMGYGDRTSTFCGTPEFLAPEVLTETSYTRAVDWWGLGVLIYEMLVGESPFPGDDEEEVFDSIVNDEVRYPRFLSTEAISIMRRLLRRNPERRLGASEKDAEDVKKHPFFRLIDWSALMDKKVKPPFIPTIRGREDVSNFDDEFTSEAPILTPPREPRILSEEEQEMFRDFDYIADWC
Chain of RSK2 (P51812 whole entry): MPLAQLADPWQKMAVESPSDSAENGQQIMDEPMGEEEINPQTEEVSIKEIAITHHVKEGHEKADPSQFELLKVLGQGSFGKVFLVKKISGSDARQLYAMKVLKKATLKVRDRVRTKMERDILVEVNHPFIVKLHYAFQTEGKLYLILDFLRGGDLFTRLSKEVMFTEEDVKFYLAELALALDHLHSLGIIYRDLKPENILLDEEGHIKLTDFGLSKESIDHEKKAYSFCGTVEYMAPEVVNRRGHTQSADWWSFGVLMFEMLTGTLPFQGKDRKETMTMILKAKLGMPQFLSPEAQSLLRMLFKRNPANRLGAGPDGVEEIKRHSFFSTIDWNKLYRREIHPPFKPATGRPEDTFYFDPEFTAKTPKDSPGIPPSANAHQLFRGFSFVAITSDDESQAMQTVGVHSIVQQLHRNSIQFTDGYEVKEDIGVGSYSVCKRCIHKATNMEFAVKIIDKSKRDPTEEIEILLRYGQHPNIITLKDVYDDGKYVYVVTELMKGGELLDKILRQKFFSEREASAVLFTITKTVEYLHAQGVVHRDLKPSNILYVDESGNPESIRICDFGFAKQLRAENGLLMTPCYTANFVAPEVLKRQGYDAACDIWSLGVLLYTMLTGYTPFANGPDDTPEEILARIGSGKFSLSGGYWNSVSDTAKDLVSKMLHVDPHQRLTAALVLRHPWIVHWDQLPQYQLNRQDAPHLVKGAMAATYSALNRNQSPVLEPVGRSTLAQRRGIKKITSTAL
Chain of JNK1 (P45983 whole entry): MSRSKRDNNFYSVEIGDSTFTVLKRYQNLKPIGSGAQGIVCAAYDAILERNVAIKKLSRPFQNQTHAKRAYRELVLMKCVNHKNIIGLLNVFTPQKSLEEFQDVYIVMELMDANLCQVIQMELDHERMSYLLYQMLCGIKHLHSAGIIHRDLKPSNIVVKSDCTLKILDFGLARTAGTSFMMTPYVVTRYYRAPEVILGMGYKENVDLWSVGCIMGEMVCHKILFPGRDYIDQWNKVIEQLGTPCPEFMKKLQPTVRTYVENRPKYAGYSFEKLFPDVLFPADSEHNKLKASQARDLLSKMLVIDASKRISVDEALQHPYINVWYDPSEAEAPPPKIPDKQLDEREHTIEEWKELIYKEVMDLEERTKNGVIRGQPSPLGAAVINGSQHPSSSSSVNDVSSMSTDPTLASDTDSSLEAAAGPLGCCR
Chain of PYK2 (Q14289 whole entry): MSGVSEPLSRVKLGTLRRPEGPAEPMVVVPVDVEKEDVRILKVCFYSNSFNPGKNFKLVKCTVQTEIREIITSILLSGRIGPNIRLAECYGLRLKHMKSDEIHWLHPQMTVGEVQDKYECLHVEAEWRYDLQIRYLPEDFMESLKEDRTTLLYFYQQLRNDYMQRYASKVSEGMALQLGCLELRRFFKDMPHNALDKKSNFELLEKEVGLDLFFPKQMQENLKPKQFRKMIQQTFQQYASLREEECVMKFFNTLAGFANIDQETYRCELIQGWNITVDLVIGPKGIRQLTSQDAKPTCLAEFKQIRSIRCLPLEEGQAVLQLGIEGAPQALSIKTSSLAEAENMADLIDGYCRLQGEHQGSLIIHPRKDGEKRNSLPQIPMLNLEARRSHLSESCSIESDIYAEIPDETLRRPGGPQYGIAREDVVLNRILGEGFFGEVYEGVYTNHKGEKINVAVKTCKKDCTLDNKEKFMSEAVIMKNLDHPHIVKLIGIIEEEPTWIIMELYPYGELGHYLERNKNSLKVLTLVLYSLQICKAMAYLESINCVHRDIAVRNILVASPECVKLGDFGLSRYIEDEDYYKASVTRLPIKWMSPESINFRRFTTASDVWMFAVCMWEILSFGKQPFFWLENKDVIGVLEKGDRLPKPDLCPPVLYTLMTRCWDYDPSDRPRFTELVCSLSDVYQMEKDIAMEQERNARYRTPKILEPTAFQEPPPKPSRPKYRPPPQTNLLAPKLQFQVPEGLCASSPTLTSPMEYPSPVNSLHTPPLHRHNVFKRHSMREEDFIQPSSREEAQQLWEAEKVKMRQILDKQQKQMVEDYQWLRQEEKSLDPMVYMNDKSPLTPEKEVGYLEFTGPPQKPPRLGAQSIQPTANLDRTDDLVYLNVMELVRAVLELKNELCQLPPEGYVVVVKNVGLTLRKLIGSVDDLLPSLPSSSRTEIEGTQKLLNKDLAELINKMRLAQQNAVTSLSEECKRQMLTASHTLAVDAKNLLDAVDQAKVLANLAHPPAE
Chain of PLK1 (P53350 whole entry): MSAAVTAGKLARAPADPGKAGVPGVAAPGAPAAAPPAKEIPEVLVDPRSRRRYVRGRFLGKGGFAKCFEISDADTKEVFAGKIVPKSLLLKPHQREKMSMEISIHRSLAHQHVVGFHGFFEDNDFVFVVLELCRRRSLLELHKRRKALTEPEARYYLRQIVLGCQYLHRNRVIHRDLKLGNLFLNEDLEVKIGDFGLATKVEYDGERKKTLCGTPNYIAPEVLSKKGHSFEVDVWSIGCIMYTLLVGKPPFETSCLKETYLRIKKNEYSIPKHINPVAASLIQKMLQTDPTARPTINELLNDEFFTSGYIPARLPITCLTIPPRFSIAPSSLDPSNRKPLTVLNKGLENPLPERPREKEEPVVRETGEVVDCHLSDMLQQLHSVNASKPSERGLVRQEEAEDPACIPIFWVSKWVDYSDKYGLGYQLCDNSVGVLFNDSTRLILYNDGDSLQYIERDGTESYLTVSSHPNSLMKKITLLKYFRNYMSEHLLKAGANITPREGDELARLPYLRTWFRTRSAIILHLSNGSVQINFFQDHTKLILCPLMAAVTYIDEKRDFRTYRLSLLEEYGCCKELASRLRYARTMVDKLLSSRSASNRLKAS

As to `CS(=O)(=O)Nc1ccccc1Nc1nc(Nc2cccc(OCCN)c2)ncc1Cl` [CZC31326, N-(2-(2-(3-(2-aminoethoxy)phenylamino)-5-chloropyrimidin-4-ylamino)phenyl)methanesulfonamide], the inhibition at 10 µM on RSK2 is 96%; at PHKg2, 89.9%; on PKN2 it was 94%; on PYK2, 92.7%; at PLK1 it was 94.7%. Further, the values for the Competition % on MST1, at SYK and at JNK1 were 94.6%, 93.4% and 87%, respectively.
